Reference: the OligoGym collection
Values joined by “and” are separate entries in the source; they are usually repeats but may differ in a detail not shown here. Equal values may be shown once. After the bases stand the sugars from the 5' end (letter, count) and the backbone: PS all phosphorothioate, else s phosphorothioate and o phosphodiester by linkage. Methylation of C is not given here. e = 2'-O-(2-methoxyethyl) (MOE); k = constrained ethyl (cEt); d = 2'-deoxy (DNA)

Experiments:
IRF5 = settings: ASO, KARPAS-229, 4 µM
DGAT2 = settings: ASO

Sequence	target mRNA inhibition (DGAT2; HepG2, 0.12 µM) [%]	target mRNA inhibition (DGAT2; HepG2, 10 µM)	other results
CACCACTGTGTACCCC (sugars kdddddddddkekeke, PS)			target mRNA inhibition (IRF5): 0%
CACTGACACAGGCGGA (sugars k3 d10 k3, PS)			target mRNA inhibition (IRF5): 1% and 0%
CACTGACACAGGCGGA (sugars kekdddddddddeekk, PS)			target mRNA inhibition (IRF5): 0%
CACTGACACAGGCGGA (sugars kkddddddddkekekk, PS)			target mRNA inhibition (IRF5): 0%
CACTTGATTCCAATTT (sugars k3 d10 k3, PS)			target mRNA inhibition (IRF5): 36%
CAGGTTCTTGGACTCT (sugars kkddddddddkekekk, PS)			target mRNA inhibition (IRF5): 0%
CAGGTTCTTGGACTCT (sugars kkkddddddddkekek, PS)			target mRNA inhibition (IRF5): 0%
CATCTCCACATCAGTC (sugars kdddddddddkekeke, PS)			target mRNA inhibition (IRF5): 32%
TGCAGCCTGGACAAGTCCTG (sugars e5 d10 e5, PS)	67		
TGCCAATGCCTAGGTCA (sugars e3 d10 e4, PS)		70% and 89%	target mRNA inhibition (DGAT2; HepG2, 2.5 µM): 82% and 74%
TGCCCTTGCTGTAGGACCCA (sugars e5 d10 e5, PS)		88% and 95%	target mRNA inhibition (DGAT2; HepG2, 2.5 µM): 92% and 79%
TGCTGAGCTCATGAGAAGCT (sugars e5 d10 e5, PS)		92% and 83%	target mRNA inhibition (DGAT2; HepG2, 2.5 µM): 75% and 57%
TGCTGGATCCAGTGCCCCAT (sugars e5 d10 e5, PS)	44		
TGGACAAGTCATCTTCCAGC (sugars e5 d10 e5, PS)		74%	target mRNA inhibition (DGAT2; HepG2, 2.5 µM): 52%
TGGACAAGTCCTGCCCATCT (sugars e2 d13 e5, PS)	51		
TGGACAAGTCCTGCCCATCT (sugars e3 d14 e3, PS)	69		
TGGAGCTCAGAGACTCAGCC (sugars e5 d10 e5, PS)	77	70%	target mRNA inhibition (DGAT2; HepG2, 2.5 µM): 19%; target mRNA inhibition (DGAT2; HepG2, 20 µM): 46%
TGGATACTCAGAAGAGCAGT (sugars e5 d10 e5, PS)	37		
TGGCTGGGAGGAGTCCAGCA (sugars e5 d10 e5, PS)	10		
TGGGAACAGCAGCATCAGCA (sugars e5 d10 e5, PS)		80%	target mRNA inhibition (DGAT2; HepG2, 2.5 µM): 65%
TGGTATCCAAAGATATAGTT (sugars e5 d10 e5, PS)	42		
TGGTCAGCAGGTTGTGTGTC (sugars e3 d14 e3, PS)	57		
TGGTCTTGTGCTTGTCGAAG (sugars e5 d10 e5, PS)	41		

Sequence	target mRNA inhibition (DGAT2; HepG2, 0.12 µM) [%]	target mRNA inhibition (DGAT2; HepG2, 10 µM)	other results
TGGTGATGGGCTTGGAGTAG (sugars e5 d10 e5, PS)	28		
TGTACACTTCATTCTCTCCA (sugars e5 d10 e5, PS)		87%	target mRNA inhibition (DGAT2; HepG2, 2.5 µM): 41%
TGTCCTAGTGCCCCAGGGAG (sugars e5 d10 e5, PS)		79%	target mRNA inhibition (DGAT2; HepG2, 2.5 µM): 48%
TGTCTTCACCAGCTGGATGG (sugars e5 d10 e5, PS)	55		
TGTGCTCTGTGGGCTCCTCC (sugars e5 d10 e5, PS)		85%	target mRNA inhibition (DGAT2; HepG2, 2.5 µM): 66%
TGTGCTGCATCCATGTCATC (sugars e5 d10 e5, PS)	36		
TGTGTCTTCACCAGCTGGAT (sugars e5 d10 e5, PS)	55		
TTATCCTTGAGGGTCTCATA (sugars e5 d10 e5, PS)	45		
TTCACCAGGGCCTCCATGTA (sugars e5 d10 e5, PS)	20		
TTCCACTCTTCTGACAGGTC (sugars e5 d10 e5, PS)		89% and 84%	
TTCCCCAGAGCAGCTCTGAG (sugars e5 d10 e5, PS)	27		
TTCGGACCCACTGTGACCTC (sugars e3 d14 e3, PS)	64		
TTCTGGAACTTCTTCTGGAC (sugars e5 d10 e5, PS)	37		
TTCTGTGGCCTCTGTGCTGA (sugars e5 d10 e5, PS)	25		
TTCTTGCCAGGCATGGAGCT (sugars e5 d10 e5, PS)	54		
TTCTTTTAAATAACCCACAG (sugars e5 d10 e5, PS)	8		
TTGGTCTTTTTGGCTGCCCT (sugars e5 d10 e5, PS)		85% and 82%	
TTGTACACTTCATTCTCTCC (sugars e5 d10 e5, PS)		84%	target mRNA inhibition (DGAT2; HepG2, 2.5 µM): 37%
TTGTCCTGGTCCCAGTACTT (sugars e5 d10 e5, PS)		88%	target mRNA inhibition (DGAT2; HepG2, 2.5 µM): 68%
TTTCCACTCTTCTGACAGGT (sugars e5 d10 e5, PS)		93% and 92%	target mRNA inhibition (DGAT2; HepG2, 2.5 µM): 77% and 69%
TTTCGGACCCACTGTGACCT (sugars e2 d13 e5, PS)	68		
TTTCGGACCCACTGTGACCT (sugars e3 d14 e3, PS)	61		
